From patent EP1146866B1, “A METHOD FOR TREATING PATIENTS WITH ACNE BY ADMINISTERING A CYCLIC GMP PDE INHIBITOR” (priority 1999, dated 2000)

Key:
[1] = target: PDE5 (Homo sapiens, UniProt O76074); test: cGMP-specific PDE inhibition activity (3H cyclic GMP substrate); type: biochemical
Experimental: (§1) cGMP-specific phosphodiesterase activity can be determined using methods known in the art, such as a method using radioactive ^3H cyclic GMP (cyclic 3',5'-guanosine monophosphate) as the substrate for PDE5 enzyme (Thompson, W.J., Teraski, W.L., Epstein, P.M., Strada, S.J., Advances in Cyclic Nucleotide Research, 10:69-92, 1979. Using such techniques, the values of cGMP-specific inhibition set forth in Table 1 were determined for the compounds above: TABLE 1

[2] = target: PDE2 (Homo sapiens, UniProt O00408); test: cGMP-stimulated PDE inhibition activity; type: biochemical
PDE2, sequence (O00408 whole entry): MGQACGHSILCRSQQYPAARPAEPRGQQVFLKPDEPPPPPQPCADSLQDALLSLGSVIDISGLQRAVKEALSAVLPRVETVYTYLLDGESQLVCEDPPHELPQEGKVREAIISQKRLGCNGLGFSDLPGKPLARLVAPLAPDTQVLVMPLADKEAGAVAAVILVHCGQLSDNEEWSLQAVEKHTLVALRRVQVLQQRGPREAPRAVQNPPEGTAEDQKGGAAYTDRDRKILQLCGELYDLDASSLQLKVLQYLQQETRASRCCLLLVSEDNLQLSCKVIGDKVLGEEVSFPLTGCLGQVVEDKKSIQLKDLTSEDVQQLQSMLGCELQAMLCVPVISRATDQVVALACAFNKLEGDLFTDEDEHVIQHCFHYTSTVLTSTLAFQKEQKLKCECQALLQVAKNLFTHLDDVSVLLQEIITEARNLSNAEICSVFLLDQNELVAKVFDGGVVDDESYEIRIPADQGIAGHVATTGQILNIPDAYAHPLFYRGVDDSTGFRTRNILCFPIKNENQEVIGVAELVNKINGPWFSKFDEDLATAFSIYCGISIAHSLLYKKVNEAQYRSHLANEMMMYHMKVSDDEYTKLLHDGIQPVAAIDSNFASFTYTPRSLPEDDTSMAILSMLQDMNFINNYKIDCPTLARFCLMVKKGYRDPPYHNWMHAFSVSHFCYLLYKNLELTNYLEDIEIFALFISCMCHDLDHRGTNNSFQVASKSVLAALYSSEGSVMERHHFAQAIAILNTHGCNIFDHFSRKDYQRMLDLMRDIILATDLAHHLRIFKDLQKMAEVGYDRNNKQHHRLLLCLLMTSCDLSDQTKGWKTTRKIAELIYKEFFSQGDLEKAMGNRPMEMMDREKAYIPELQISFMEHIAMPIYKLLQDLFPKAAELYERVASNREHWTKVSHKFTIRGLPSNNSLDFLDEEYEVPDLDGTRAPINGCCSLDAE
Experimental: as §1
cGMP phosphodiesterase activity can be determined using the methods referenced in Example 5, above. Using such techniques, the IC50 value for the inhibition of PDE2 by the compound of Example 1, exisulind, was determined as shown in Table 2.

[3] = system: acne vulgaris; test: Clinical results with a patient with acne vulgaris; type: in vivo, human
Experimental: A patient with acne vulgaris was given a pharmaceutical composition containing 125 mg of a cGMP-specific PDE inhibitor, exisulind (the compound of Example 1), twice daily for 8 weeks. […] Since the patient was tolerating that daily dose quite well, their dose of exisulind was increased to 150 mg twice daily, for an additional 8 weeks.
The pharmaceutical formulation for the 150 mg-containing pharmaceutical composition taken by this patient contained exisulind (150 mg), lactose monohydrate (207 mg), croscarmellose sodium (15 mg), colloidal silicon dioxide (1 mg), magnesium stearate (6.3 mg), and sodium lauryl sulfate (0.7 mg) encapsulated in a # 1 gelatin capsule. The exisulind was obtained from Zambon Group, S.p.A., of Milan, Italy. The pharmaceutical formulation for the 125 mg containing composition was formulated with less exisulind, and more excipients to fill the capsule.

[4] = Clinical studies of exisulind for uses other than acne (tolerability); type: in vivo
Experimental: In studies with adult patients, patients with intact colons received exisulind at a dosage of 400 mg/day, and patients who had previously undergone a colectomy received exisulind at a dosage of 600 mg/day. In another study with adult patients, the patients received 500 mg/day of exisulind. In a study involving pediatric patients, the dosage of exisulind used ranged from 250 to 350 mg per day.
In these studies, exisulind is generally well tolerated in patients. […] The maximum tolerated dose (MTD) was determined to be 600 mg/day in patients with colectomies, and 400 mg/day in the group with intact colons. […] These elevations were completely reversible on stopping the drug. Additionally, after a patient with elevated liver enzymes stops receiving the drug for approximately one week, the patient can then safely resume treatment at the same or a lower therapeutic dose, i.e. the dosages mentioned above. The elevations seem to be dose related and have been seen mostly at doses above the maximum tolerated dose. […] Thirteen of those patients received exisulind for over three years.

inhibition at 10 µM [1]	SMILES	IC50 [2]	patient's acne ([3]; 150 mg twice daily for an additional 8 weeks, end of second 8-week period)	adverse side effects reported by patient ([3]; after 125 mg then 150 mg twice daily, 8 weeks each)	manifestations of acne during continued treatment ([3]; continued on drug for six months)	patient's acne (intensity) ([3]; patient, 125 mg twice daily for 8 weeks)	maximum tolerated dose (MTD) ([4]; group with intact colons)	liver function tests ([4]; human, in vivo)	side effects in clinical studies ([4]; human, in vivo)	side effects on extended treatment ([4]; human, in vivo)	maximum tolerated dose (MTD) ([4]; patients with colectomies)
50%	COC(=O)CC1=C(C)/C(=C/c2ccc(S(C)(=O)=O)cc2)c2ccc(F)cc21 [Example 2, α-(1-p-Methylsulfonylbenzylidene)-2-Methyl-5-Fluoro-3-Indenyl -Acetic Acid Methyl Ester]										
80%	CC1=C(CCO)c2cc(F)ccc2/C1=C\c1ccc(S(C)(=O)=O)cc1 [Example 3, (Z)-5-Fluoro-2-Methyl-1-(4-Methylsulfonylbenzylidene)-1H-3-Indenyl-(2-Hydroxy) Ethane]										

SMILES	inhibition at 10 µM [1]	IC50 [2]	patient's acne ([3]; 150 mg twice daily for an additional 8 weeks, end of second 8-week period)	adverse side effects reported by patient ([3]; after 125 mg then 150 mg twice daily, 8 weeks each)	manifestations of acne during continued treatment ([3]; continued on drug for six months)	patient's acne (intensity) ([3]; patient, 125 mg twice daily for 8 weeks)	maximum tolerated dose (MTD) ([4]; group with intact colons)	liver function tests ([4]; human, in vivo)	side effects in clinical studies ([4]; human, in vivo)	side effects on extended treatment ([4]; human, in vivo)	maximum tolerated dose (MTD) ([4]; patients with colectomies)
CC1=C(CC(=O)O)c2cc(F)ccc2/C1=C\c1ccc(S(C)(=O)=O)cc1 [Example 1, α-(1-p-Methylsulfonylbenzylidene)-2-Methyl-5-Fluoro-3-Indenyl-Acetic Acid]	39%	300 µM	disappeared completely	no adverse side effects	without any significant manifestations of acne	decrease noticeably in intensity	400 mg/day	moderate, reversible, asymptomatic elevation in liver function tests	no clinically relevant side effects reported	no such clinically significant side effects	600 mg/day
